Measured values reported in US10131558B1, “Compositions, methods, and/or systems for managing sulfide” (priority 2016, dated 2018).
Where two headings read alike, the source gives them in different places.

Assays:
[1] = Treatment of sulfides in municipal wastewater using ferric chelants and hydrogen peroxide; conditions: 20 ppm chelant and 105.8 ppm hydrogen peroxide
[2] = Treatment of sulfides in municipal wastewater using ferric chelants and ozone; conditions: ozone ~13.4 ppm, 4 ppm ferric chelant where used; for sulfide remaining: start 13.70
Description: The raw wastewater received a dose of 4 ppm of each of the four ferric chelants (mass calculated as chelant) just prior to addition of ozone.
Ozone addition was accomplished using an ozone generator from Ozone Solutions, Sioux Center, Iowa. The generator was capable of generating up to 2 grams per hour of ozone. Injection of ozone into the wastewater was accomplished using an injection system from Ozone Solutions called the H2O-Mini. The unit is designed to treat from 1.5 to 5.7 liters per minute of wastewater. The unit was set up to deliver 6.7 mg/minute of dissolved ozone (assumed the 80% efficiency of dissolution noted by the manufacturer) to wastewater passing the injection nozzle within the H2O-mini. Each test was designed for maximum wastewater flow through the H2O-mini (5.7 liters/min).
An objective of the study will be to treat most, but not all, of the sulfide present within the individual test samples in order to determine which treatment was more efficient than the others.
Samples were taken over twenty minutes of contact time from the recirculation vessel after ozonation. For each of the four ferric chelant studies, chelants were added to the wastewater recirculation vessels just prior to starting the injection of ozone and recirculation of the liquids. The injection of ozone was applied over the prescribed period and sampled as before in the ozone only experiment.

[3] = system: total heterotrophic bacteria; assay: Disinfection of wastewater using chelated iron compounds; assay type: cell-based; conditions: 30 min, raw average 18,188 CFUs; for Test 3 CFUs/ml 12 ppm Fe-Chelant: chelant alone, no H2O2
Experimental: The clarified supernatant was then pored off of the top of the settled solids within the sample. The supernatant was then mixed and four samples were collected to determine untreated heterotrophic bacteria counts. […] were dissolved in distilled water at 0.4334M. Ferric chloride was added in amounts to achieve saturation of chelant sites on the respective chelants. […] Twenty individual liter samples of supernatant were then decanted from the well-mixed wastewater sample for testing. Four chelated iron products with peroxide were tested at two test concentrations and compared to samples receiving peroxide only and iron chelate only. […] Samples were then decanted to sterile sample containers containing sodium thiosulfate to stop the oxidation process and preserve the sample. Samples were then placed in a refrigerator until all samples were finished. Samples were packaged in a standard cooler with ice packs and sent via overnite delivery to ProChem Labs in Lynchburg, Va. for analysis for total heterotrophic bacteria counts.

[4] = cited from earlier work
[5] = Anaerobic sulfide treatment: pure oxygen versus pure oxygen + ferric MGDA and nitrate; conditions: for Sulfide: control 33, 10 cc pure oxygen, ~0.1 ml ~0.03 M Fe MGDA with ~8.75 mg nitrate where used
Description: Three 300 milliliter Supelco test flasks were utilized for conducting the testing. Each flask had two valves and a single port for a septum to inject chemistry into the vessel. Each test flask was completely filled to zero headspace with wastewater from a municipal wastewater treatment facility that had been spiked with sodium sulfide. […] Test flasks were left at room temperature for two hours to assure that any oxygen within the wastewater in the test flasks was consumed prior to the study so as to mimic anaerobic wastewater conditions to initiate the study. […] Oxygen was injected simultaneously with a slight opening of a valve on the cylinder so that wastewater could could be displaced by the incoming volume of oxygen. […] The control sample flask received no injection of any ingredients. After injection of ingredients into each test flask, the flasks were placed on a New Brunswick Shaker Table and shaken for variable periods of time at ˜200 rpm's. After each test period flasks were removed and a sample extracted for sulfide testing using a La Motte Sulfide Color Comparison Test Kit. Sample for the control was taken at time zero for each study.

[6] = Anaerobic sulfide treatment: pure oxygen versus pure oxygen + ferric MGDA; conditions: 10 cc pure oxygen, ~0.1 ml ~0.03 M Fe MGDA where used
[7] = Nitrate addition to sewage, lab jar tests and sewage collection system test

## O=C([O-])CN(CCN(CC(=O)[O-])CC(=O)[O-])CC(=O)[O-].[Fe+3] [Fe-EDTA]
[1]
  sulfide reduction after 15 minutes: 60%
[2]
  Overall total percentage of sulfide reduction: 64%
[2]; listed as ferric EDTA
  Overall total percentage of sulfide reduction: 64%
[2]; 5 min contact
  sulfide remaining: 6.20 ppm
[2]; 10 min contact
  sulfide remaining: 5.10 ppm
[2]; 20 min contact
  sulfide remaining: 4.90 ppm
[3]
  Test 1 CFUs/ml 19.8 ppm H2O2 6 ppm Fe-Chelant: 360 CFUs/ml
  Test 2 CFUs/ml 39.6 ppm H2O2 12 ppm Fe-Chelant: 59 CFUs/ml
  Test 3 CFUs/ml 12 ppm Fe-Chelant: 18,200 CFUs/ml

## O=C([O-])CN(CCO)CC(=O)[O-].[Fe+3] [Fe-HEIDA]
[2]
  Overall total percentage of sulfide reduction: 60%
[2]; listed as ferric HEIDA
  Overall total percentage of sulfide reduction: 60%
[2]; 5 min contact
  sulfide remaining: 6.80 ppm
[2]; 10 min contact
  sulfide remaining: 6.00 ppm
[2]; 20 min contact
  sulfide remaining: 5.40 ppm
[3]
  Test 1 CFUs/ml 19.8 ppm H2O2 6 ppm Fe-Chelant: 1350 CFUs/ml
  Test 2 CFUs/ml 39.6 ppm H2O2 12 ppm Fe-Chelant: 84 CFUs/ml
  Test 3 CFUs/ml 12 ppm Fe-Chelant: 16,700 CFUs/ml

## O=C([O-])CN(CC(=O)[O-])CC(=O)[O-].[Fe+3] [Fe-NTA]
[1]
  sulfide reduction after 15 minutes: 70.2%
[2]
  Overall total percentage of sulfide reduction: 91%
[2]; listed as ferric NTA
  Overall total percentage of sulfide reduction: 91%
[2]; 5 min contact
  sulfide remaining: 3.40 ppm
[2]; 10 min contact
  sulfide remaining: 1.90 ppm
[2]; 20 min contact
  sulfide remaining: 1.30 ppm
[3]
  Test 1 CFUs/ml 19.8 ppm H2O2 6 ppm Fe-Chelant: 370 CFUs/ml
  Test 2 CFUs/ml 39.6 ppm H2O2 12 ppm Fe-Chelant: 75 CFUs/ml
  Test 3 CFUs/ml 12 ppm Fe-Chelant: 18,300 CFUs/ml

## S [HS^−]
[4]; pH 5.0
  Proportion in dissolved sulfide: ~0.01
[4]; pH 6.0
  Proportion in dissolved sulfide: ~0.09
[4]; pH 6.2
  Proportion in dissolved sulfide: ~0.14
[4]; pH 6.4
  Proportion in dissolved sulfide: ~0.20
[4]; pH 6.6
  Proportion in dissolved sulfide: ~0.28
[4]; pH 6.8
  Proportion in dissolved sulfide: ~0.39
[4]; pH 7.0
  Proportion in dissolved sulfide: ~0.50
[4]; pH 7.2
  Proportion in dissolved sulfide: ~0.61
[4]; pH 7.4
  Proportion in dissolved sulfide: ~0.72
[4]; pH 7.6
  Proportion in dissolved sulfide: ~0.80
[4]; pH 7.8
  Proportion in dissolved sulfide: ~0.86
[4]; pH 8.0
  Proportion in dissolved sulfide: ~0.91
[4]; pH 8.2
  Proportion in dissolved sulfide: ~0.941
[4]; pH 8.4
  Proportion in dissolved sulfide: ~0.961
[4]; pH 8.6
  Proportion in dissolved sulfide: ~0.975
[4]; pH 8.8
  Proportion in dissolved sulfide: ~0.986
[4]; pH 9.0
  Proportion in dissolved sulfide: ~0.99

## O=O [Oxygen, oxygen]
[5]; 5 min
  Sulfide: 30
[5]; 10 min
  Sulfide: 16
[5]; after 10 minutes of contact
  sulfide reduced: approximately 50%
[6]; Trial 1, 5 min, control 33, 300 ml flask
  Sulfide: 25 mg/L
[6]; Trial 2, 5 min, control 31
  Sulfide: 25 mg/L
[6]; Trial 2, 22 min, control 31
  Sulfide: 1.5 mg/L

## O=[O+][O-] [Ozone, ozone, reference compound]
[2]
  Overall total percentage of sulfide reduction: 46%
[2]; 5 min contact
  sulfide remaining: 8.05 ppm
[2]; 10 min contact
  sulfide remaining: 7.50 ppm
[2]; 20 min contact
  sulfide remaining: 7.40 ppm

## O=[N+]([O-])[O-].[Na+] [sodium nitrate]
[7]
  reduction in sewage biological oxygen demand, BOD: ≤ 70%
[7]; sewage containing over approximately 50 mg/L dissolved hydrogen sulfide
  dissolved hydrogen sulfide after dosing: < 0.1 mg/L
